Measurements published in patent US20240140980A1, “HETEROCYCLIC INHIBITORS OF CD73 FOR TREATMENT OF DISEASE” (Teon Therapeutics, Inc., priority 2022, published 2024).

Assays:
[1] = biological target: T1, CD73 (Homo sapiens (Human), UniProt P21589); assay: Biochemical CD73 Assay (Malachite Green free phosphate detection); settings: recombinant human CD73 2 nM, AMP 40 μM, 45 min at 37° C.
Method: Activity of recombinant CD73 was measured by quantification of free phosphate using the Malachite Green detection system (R&D Systems #DY996). Test compounds were solubilized in DMSO and dispensed into 384-well polystyrene plates in a 8-point 3× titration in duplicates. Then, 10 μL of 4 nM human CD73 enzyme (Novoprotein #C446) in phosphate-free assay buffer (10 mM HEPES, pH 7.4, 125 mM NaCl, 1 mM KCl, 10 mM glucose, 2 mM MgCl2) was added to the plates. The compound and enzyme were incubated for 15 min at RT. Then, 10 μL of 80 μM AMP (Sigma Aldrich #A1752) in the assay buffer was added and the reaction mixture was incubated for 45 min at 37° C. The final concentrations of CD73 and AMP in the reaction were 2 nM and 40 μM, respectively. The reaction was stopped by adding 5 μL of Malachite Green reagent A and incubating for 10 min at RT, followed by addition of 5 μL of Malachite Green reagent B and incubation for 20 min at RT. Absorbance was then read at 620 nm with the Flexstation spectrophotometer (Molecular Devices). The IC50 values were determined using a four-parameter nonlinear regression curve fit.

[2] = biological target: T1, CD73; assay: Cellular CD73 Assay (primary human CD3+ T-cells with AMP); assay type: cell-based; settings: primary human peripheral blood CD3+ T-cells, 40 μM AMP, 3 days; readout (cell division or IL-2/IFN-γ) not specified for the column
Method: Primary human peripheral blood CD3+ T-cells obtained from AllCells were thawed and cultured for 24 h in a complete growth medium (Stemline T-cell expansion medium, Sigma #S1694) supplemented with 1 mM L-glutamine, 50 IU/mL of IL-2 and 25 μL/mL of Dynabeads™ Human T-Activator CD3/CD28 (Thermo-Fisher #11161D) at a density of 10^6 cells/mL. Then, cells were labeled with 1.25 μM Cell Trace Violet (Thermo-Fisher #C34557) according to the manufacturer's instructions. Labeled cells were resuspended in a warm complete growth medium and plated onto U-bottom 96-well plates at 25,000 cells/90 μL/well. Next, 500× serial compound dilutions were prepared in DMSO in a 8-point 3-fold titration and then diluted 1:25 into a complete growth medium, generating 20× compound dilutions. Then, 5 μL of 20× compound dilutions was added to the cells and incubated for 60 min at 37° C. After this, 5 μL of 20×AMP was added to a final concentration of 40 μM. Treated cells were cultured for 3 days at 37° C., 5% CO2. Thereafter, cells were gently pelleted by centrifugation, and supernatants were collected and frozen at −80° C. for subsequent cytokine analysis. Cell pellets were resuspended in 100 μL of PBS/2% FBS and gently pipetted up and down to produce a single cell suspension. Then, 3 μL of 7-AAD (BD Biosciences #559925) was added to each well and plates were incubated on ice for 5 min. Cells were then washed and resuspended in 150 μL of PBS/2% FBS. Divided and non-divided live cells were quantified by Attune NxT flow cytometer. Cell Trace Violet-labeled cells cultured without a T-cell activator were used as the nondividing control.
For IL-2 and IFN-γ cytokine analysis, supernatants were thawed on ice, diluted 1:10 in the buffer. The concentration of cytokines was determined using Meso Scale Discovery according to the manufacturer's instructions (Meso Scale Discovery). The EC50 values were determined using a four-parameter nonlinear regression curve fit (GraphPad Prism Version 9.2, GraphPad Software Inc., San Diego, CA).

T1 sequence (P21589 27-574): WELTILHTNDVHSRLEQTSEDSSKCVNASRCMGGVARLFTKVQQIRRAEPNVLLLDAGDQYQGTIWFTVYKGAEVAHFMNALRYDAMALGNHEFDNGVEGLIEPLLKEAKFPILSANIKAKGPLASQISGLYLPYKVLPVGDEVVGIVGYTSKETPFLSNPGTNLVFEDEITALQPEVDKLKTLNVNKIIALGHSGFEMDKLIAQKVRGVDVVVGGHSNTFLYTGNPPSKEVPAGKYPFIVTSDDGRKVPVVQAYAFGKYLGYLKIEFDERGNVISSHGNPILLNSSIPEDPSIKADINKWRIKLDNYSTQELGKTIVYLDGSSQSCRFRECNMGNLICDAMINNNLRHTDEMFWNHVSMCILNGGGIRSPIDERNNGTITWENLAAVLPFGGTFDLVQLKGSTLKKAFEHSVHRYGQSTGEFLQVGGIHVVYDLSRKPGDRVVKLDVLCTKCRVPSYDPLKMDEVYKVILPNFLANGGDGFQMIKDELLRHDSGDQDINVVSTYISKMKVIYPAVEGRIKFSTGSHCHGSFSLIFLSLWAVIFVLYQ

Row | IC50 [1] [nM] | EC50 [2] [nM] | SMILES
1 | 0.58 | 0.98 | COC[C@@](OC[C@H]1O[C@@H](n2ncc3c(NC4CCCC4)nc(Cl)nc32)[C@H](O)[C@@H]1O)(C(=O)N=[S@](C)(=O)NC(C)=O)P(=O)(O)O [Example 17, ((S)-1-(((S)-Acetamido(methyl)(oxo)-λ^6-sulfaneylidene)amino)-2-(((2R,3S,4R,5R)-5-(6-chloro-4-(cyclopentylamino)-1H-pyrazolo[3,4-d]pyrimidin-1-yl)-3,4-dihydroxytetrahydrofuran-2-yl)methoxy)-3-methoxy-1-oxopropan-2-yl)phosphonic Acid]
2 | 0.31 | 0.72 | CNC(=O)N[S@@](C)(=O)=NC(=O)[C@@](COC)(OC[C@H]1O[C@@H](n2ncc3c(NC4CCCC4)nc(Cl)nc32)[C@H](O)[C@@H]1O)P(=O)(O)O [Example 10, ((S)-2-(((2R,3S,4R,5R)-5-(6-Chloro-4-(cyclopentylamino)-1H-pyrazolo[3,4-d]pyrimidin-1-yl)-3,4-dihydroxytetrahydrofuran-2-yl)methoxy)-3-methoxy-1-(((S)-methyl(3-methylureido)(oxo)-λ^6-sulfaneylidene)amino)-1-oxopropan-2-yl)phosphonic Acid]
3 | 0.7 | 0.68 | CCC(=O)NS(C)(=O)=NC(=O)[C@@](COC)(OC[C@H]1O[C@@H](n2ncc3c(NC4CCCC4)nc(Cl)nc32)[C@H](O)[C@@H]1O)P(=O)(O)O (stereo partly drawn) [Example 13, ((2S)-2-(((2R,3S,4R,5R)-5-(6-Chloro-4-(cyclopentylamino)-1H-pyrazolo[3,4-d]pyrimidin-1-yl)-3,4-dihydroxytetrahydrofuran-2-yl)methoxy)-3-methoxy-1-((methyl(oxo)(propionamido)-λ^6-sulfaneylidene)amino)-1-oxopropan-2-yl)phosphonic Acid]
4 | 0.5 | 1 | COC[C@@](OC[C@H]1O[C@@H](n2ncc3c(NC4CCCC4)nc(Cl)nc32)[C@H](O)[C@@H]1O)(C(=O)N=[S@](C)(=O)NC(=O)OC)P(=O)(O)O [Example 18, ((S)-2-(((2R,3S,4R,5R)-5-(6-Chloro-4-(cyclopentylamino)-1H-pyrazolo[3,4-d]pyrimidin-1-yl)-3,4-dihydroxytetrahydrofuran-2-yl)methoxy)-3-methoxy-1-(((S)-((methoxycarbonyl)amino)(methyl)(oxo)-λ^6-sulfaneylidene)amino)-1-oxopropan-2-yl)phosphonic Acid]
5 | 0.9 | 1.57 | CNC(=O)N[S@](C)(=O)=NC(=O)[C@@](COC)(OC[C@H]1O[C@@H](n2ncc3c(NC4CCCC4)nc(Cl)nc32)[C@H](O)[C@@H]1O)P(=O)(O)O [Example 9, ((S)-2-(((2R,3S,4R,5R)-5-(6-Chloro-4-(cyclopentylamino)-1H-pyrazolo[3,4-d]pyrimidin-1-yl)-3,4-dihydroxytetrahydrofuran-2-yl)methoxy)-3-methoxy-1-(((R)-methyl(3-methylureido)(oxo)-λ^6-sulfaneylidene)amino)-1-oxopropan-2-yl)phosphonic Acid]
6 | 0.74 | 1.15 | CCC(=O)NS(C)(=O)=NC(=O)[C@@](COC)(OC[C@H]1O[C@@H](n2ncc3c(NC4CCCC4)nc(Cl)nc32)[C@H](O)[C@@H]1O)P(=O)(O)O (stereo partly drawn) [Example 14, ((2S)-2-(((2R,3S,4R,5R)-5-(6-Chloro-4-(cyclopentylamino)-1H-pyrazolo[3,4-d]pyrimidin-1-yl)-3,4-dihydroxytetrahydrofuran-2-yl)methoxy)-3-methoxy-1-((methyl(oxo)(propionamido)-λ^6-sulfaneylidene)amino)-1-oxopropan-2-yl)phosphonic Acid]

Continued, compound first:

Row | SMILES | IC50 [1] [nM] | EC50 [2] [nM]
7 | COC[C@@](OC[C@H]1O[C@@H](n2ncc3c(NC4CCCC4)nc(Cl)nc32)[C@H](O)[C@@H]1O)(C(=O)N=[S@@](C)(N)=O)P(=O)(O)O [Example 3, ((2S)-1-((Amino(methyl)(oxo)-λ^6-sulfaneylidene)amino)-2-(((2R,3S,4R,5R)-5-(6-chloro-4-(cyclopentylamino)-1H-pyrazolo[3,4-d]pyrimidin-1-yl)-3,4-dihydroxytetrahydrofuran-2-yl)methoxy)-3-methoxy-1-oxopropan-2-yl)phosphonic Acid] | 1 | 1.5
8 | COC[C@@](OC[C@H]1O[C@@H](n2ncc3c(NC4CCCC4)nc(Cl)nc32)[C@H](O)[C@@H]1O)(C(=O)N=[S@@](C)(=O)NC(=O)C1CC1)P(=O)(O)O [Example 11, ((S)-2-(((2R,3S,4R,5R)-5-(6-Chloro-4-(cyclopentylamino)-1H-pyrazolo[3,4-d]pyrimidin-1-yl)-3,4-dihydroxytetrahydrofuran-2-yl)methoxy)-1-(((R)-cyclopropanecarboxamido(methyl)(oxo)-λ^6-sulfaneylidene)amino)-3-methoxy-1-oxopropan-2-yl)phosphonic Acid] | 0.77 | 0.9
9 | COC[C@@](OC[C@H]1O[C@@H](n2ncc3c(NC4CCCC4)nc(Cl)nc32)[C@H](O)[C@@H]1O)(C(=O)N=S(C)(=O)NC(=O)C(C)C)P(=O)(O)O (single isomer, unassigned) [Example 16] | 0.78 | 1.34
10 | COC[C@@](OC[C@H]1O[C@@H](n2ncc3c(NC4CCCC4)nc(Cl)nc32)[C@H](O)[C@@H]1O)(C(=O)N=[S@](C)(=O)NC(=O)C1CC1)P(=O)(O)O [Example 12, ((S)-2-(((2R,3S,4R,5R)-5-(6-Chloro-4-(cyclopentylamino)-1H-pyrazolo[3,4-d]pyrimidin-1-yl)-3,4-dihydroxytetrahydrofuran-2-yl)methoxy)-1-(((S)-cyclopropanecarboxamido(methyl)(oxo)-λ^6-sulfaneylidene)amino)-3-methoxy-1-oxopropan-2-yl)phosphonic Acid] | 0.45 | 0.92
11 | COC[C@@](OC[C@H]1O[C@@H](n2ncc3c(NC4CCCC4)nc(Cl)nc32)[C@H](O)[C@@H]1O)(C(=O)N=S(C)(=O)NC(=O)C(C)C)P(=O)(O)O (single isomer, unassigned) [Example 15] | 6.3 | 7.78
12 | COC[C@@](OC[C@H]1O[C@@H](n2ncc3c(NC4CCCC4)nc(Cl)nc32)[C@H](O)[C@@H]1O)(C(=O)N=[S@](C)(N)=O)P(=O)(O)O [Example 1, ((2S)-1-((Amino(methyl)(oxo)-λ^6-sulfaneylidene)amino)-2-(((2R,3S,4R,5R)-5-(6-chloro-4-(cyclopentylamino)-1H-pyrazolo[3,4-d]pyrimidin-1-yl)-3,4-dihydroxytetrahydrofuran-2-yl)methoxy)-3-methoxy-1-oxopropan-2-yl)phosphonic Acid] | 0.94 | 0.51
